Patent US8741951B2, “Non-steroidal compounds for androgen receptor modulation” (CNR—Consiglio Nazionale delle Ricerche, priority 2009, dated 2014)
Like-named read-outs stand apart in the source and are kept apart here.

Assays:
[1] = tested on: DU145 cell line; test: SRB cytotoxicity, DU145; assay type: cell-based, human; conditions: DU145 (no AR), 144 h, up to 20 μM
Description: (§1) FIGS. 16-25: cytotoxic effect of compounds (R)-XXIII-2, (R)-XXIII-3, (R)-XXIII-4, (R)-XXIII-5, (R)-XXIII-6, (R)-XXIII-7, (R)-XXIII-8, (R)-XXIII-9, (R)-XXIII-10, (R)-XXIV-9 on PC-3 and DU-145 cell lines at different concentration (0.02, 0.2, 2, 20 μM) after 144 h exposure. On the x-axis is reported the concentration, while on the y-axis is reported the inhibition of the net growth (% net growth).
(§2) Sulforhodamine B (SRB) assay was used according to the method by Skehan et al. (JNCI, 1990). Briefly, cells were collected by trypsinization, counted and plated at a density of 5,000 cells/well in 96-well flat-bottomed microtiter plates (100 μl of cell suspension/well). In the chemosensitivity assay, experiments were run in octuplicate, and each experiment was repeated three times. The optical density (OD) of cells was determined at a wavelength of 490 nm by a colorimetric plate reader.
(§3) If ODtreated is above ODzero, treatment has induced a cytostatic effect, whereas if ODtreated is below ODzero, cell killing has occurred. The ODzero depicts the cell number at the moment of drug addition, the ODcontrol reflects the cell number in untreated wells and the ODtreated reflects the cell number in treated wells on the day of the assay.

[2] = tested on: PC-3 cell line; test: SRB cytotoxicity, PC-3; assay type: cell-based, human; conditions: PC-3 (no AR), 144 h, up to 20 μM
Description: as §1, §2, §3

[3] = tested on: LNCaP-AR cells; test: SRB in vitro chemosensitivity assay, LNCaP-AR; assay type: cell-based; conditions: for cytotoxic effect (cytostatic / cytocidal), in words: LNCaP-AR
Description: (§4) The cell lines were maintained as a monolayer at 37° C. and subcultured weekly. Culture medium was composed of RPMI 1640 supplemented with 10% fetal calf serum and 1% glutamine (Mascia Brunelli s.p.a., Milan, Italy). Cells were used in the exponential growth phase in all the experiments.
(§5) Compounds were dissolved in acetone or DMSO (AITES) ([…]) and stored at −20° C. The cell culture containing acetone at the highest concentration was used as the control.
as §2, §3
(§6) FIGS. 2-11 show the cytotoxic activity of the derivative compounds of the invention on the LNCaP and LNCaP-AR cell lines. The authors examined the antitumour activity of the compounds for which the synthesis is described above, in the hormone-sensitive prostate cancer cell line LNCaP and in its derivative cell line LNCaP-AR, expressing high level of AR and with hormone refractory prostate cancer (HRPC) features. The novel compounds were tested at the increasing concentrations of […], 0.2, 2.0, and 20.0 μM. The highest dose used was chosen on the basis of the clinically achievable peak plasma concentration reported in the literature for bicalutamide (Cockshott I D. Clin Pharmacokinet. 2004; 43(13): 855-78). After 144-hr exposure time the cytotoxic effect of the molecules was calculated according to the method of Monks et al. (Monks A, Scudiero D, Skehan P, et al. Feasibility of a high-flux anticancer drug screen using a diverse panel of cultured human tumor cell lines. J Natl Cancer Inst. 1991; 83: 757-66.)

[4] = tested on: human hepatoblastoma cell line HepG2; test: Cytotoxic activity on HepG2 (hepato-toxicity); assay type: cell-based; conditions: HepG2, up to highest concentration tested
Description: as §2, §3
FIG. 27-36 show the cytotoxic activity of the drugs on the human hepatoblastoma cell line HepG2. The authors evaluated in vitro the potential hepato-toxicity of some of the novel compounds on HepG2 cell line, a human hepatoblastoma cell line that retains the specialized function of normal hepatocytes [Knowles B B, Howe C C, Aden D P. Human hepatocellular carcinoma cell lines secretes the major plasma proteins and hepatitis B surface antigen. Science 1980, 209:497-499; Aden D P, Vogel A, Plortkin S, Damjanov I, Knowles B B. Controlled synthesis of HBS Ag in a differentiated human liver carcinoma-derived cell line. Nature, 1979, 282:615-616].

[5] = tested on: LNCaP cells; test: SRB in vitro chemosensitivity assay, LNCaP; assay type: cell-based
Description: as §4, §5, §2, §3, §6

[6] = molecular target: T1, human androgen receptor (hAR) (Homo sapiens, UniProt P10275); test: hAR transactivation assay (ARE-luc) in Cos-7 cells; assay type: cell-based
T1 construct: expressed in transfected cells; host or cells: Cos-7
T1 sequence (P10275 1-920): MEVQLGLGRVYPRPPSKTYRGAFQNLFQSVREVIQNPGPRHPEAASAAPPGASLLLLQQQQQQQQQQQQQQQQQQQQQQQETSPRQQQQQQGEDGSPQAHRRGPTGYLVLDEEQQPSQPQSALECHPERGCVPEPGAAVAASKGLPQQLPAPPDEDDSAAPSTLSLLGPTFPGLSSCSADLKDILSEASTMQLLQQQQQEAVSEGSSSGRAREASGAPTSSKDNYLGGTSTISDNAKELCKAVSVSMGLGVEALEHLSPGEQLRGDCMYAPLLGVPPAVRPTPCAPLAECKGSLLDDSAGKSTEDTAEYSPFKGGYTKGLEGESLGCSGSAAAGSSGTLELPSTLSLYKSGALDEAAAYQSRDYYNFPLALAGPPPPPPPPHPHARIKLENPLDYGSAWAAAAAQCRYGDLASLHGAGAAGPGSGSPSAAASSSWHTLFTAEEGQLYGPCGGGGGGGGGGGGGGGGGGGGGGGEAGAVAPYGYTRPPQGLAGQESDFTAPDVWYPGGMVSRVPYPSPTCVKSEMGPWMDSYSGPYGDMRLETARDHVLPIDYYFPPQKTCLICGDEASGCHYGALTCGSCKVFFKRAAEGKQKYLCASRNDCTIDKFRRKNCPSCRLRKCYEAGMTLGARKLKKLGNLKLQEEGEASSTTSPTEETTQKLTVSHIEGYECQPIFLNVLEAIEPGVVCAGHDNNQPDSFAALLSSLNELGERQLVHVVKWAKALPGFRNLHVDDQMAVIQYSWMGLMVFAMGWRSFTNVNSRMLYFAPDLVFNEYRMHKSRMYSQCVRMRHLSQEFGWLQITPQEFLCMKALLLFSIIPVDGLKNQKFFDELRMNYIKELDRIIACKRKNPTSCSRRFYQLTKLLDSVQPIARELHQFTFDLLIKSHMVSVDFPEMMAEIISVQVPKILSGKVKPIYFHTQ
Text: The cDNA coding hAR was cloned into the pSG5 expression vector as reported previously [Chang, C. S., J. Kokontis, and S. T. Liao 1988 Molecular cloning of human and rat complementary DNA encoding androgen receptors Science 240:324-326].
The 3416 construct (ARE-Luc), containing four copies of the wild-type slp-HRE2 (5′-TGGTCAgccAGTTCT-3′) was cloned in the NheI site in pTK-TATA-Luc [Verrijdt, G., E. Schoenmakers, A. Haelens, B. Peeters, G. Verhoeven, W. Rombauts, and F. Claessens 2000 Change of specificity mutations in androgen selective enhancers J. Biol. Chem. 275:12298-12305].
For androgen-stimulated transcriptional analysis, 32×10^4 Cos-7 cells were plated in phenol red-free DMEM containing 5% charcoal-stripped serum. After 48 h, the cells were transfected by Superfect (Qiagen) with 0.3 μg of 3416-pTK-TATA-Luc construct, together with 1.5 μg of either pSG5-empty plasmid or pSG5-hAR expressing plasmid. […] When indicated, the synthetic compounds were added alone to the cell medium. […] It was dissolved in 0.001% (final concentration) ethanol. Control cells were treated with the vehicle alone. Lysates were prepared and the luciferase activity was measured using a luciferase assay system (Promega). The results were corrected using CH110-expressed beta-galactosidase activity (Amersham Biosciences) and luciferase activity was expressed as fold induction. Results were obtained from two or three different experiments, each performed in duplicate. Mean and SEM are shown.

[7] = LNCaP-AR cells, 144 h exposure, up to 20 μM
[8] = Homo sapiens, LNCaP, 144 h, read-out: LC50, LNCaP cells, 144 h exposure, up to 20 μM
[9] = read-out: LC50, LNCaP cells, 144 h exposure, up to 20 μM
[10] = LNCaP cells, 144 h exposure, up to 20 μM

Compound	cytotoxic activity, in words [1]	cytotoxic activity, in words [2]	GI50 ([3]; Homo sapiens, LNCaP/AR, 144 h) [µM]	LC50 [3, 7]	cytotoxic effect (cytostatic / cytocidal), in words ([3]; 144 h, up to 20 μM)	hepato-toxicity, in words [4]	GI50 ([5]; Homo sapiens, LNCaP, 144 h) [µM]	LC50 [5, 8] [µM]	cytotoxic effect (cytostatic / cytocidal), in words ([5]; LNCaP, 144 h, up to 20 μM)	LC50 [5, 9] [µM]	GI50 [3, 7]	LC50 ([3]; LNCaP-AR cells, 144 h exposure, up to 20 μM, listed as bicalutamide)	GI50 ([5]; Homo sapiens, LNCaP cells, 144 h exposure, up to 20 μM, read-out: GI50) [µM]	LC50 [5, 10]	LC50 ([5]; LNCaP cells, 144 h exposure, up to 20 μM, listed as bicalutamide)	GI50 [5, 10]	inhibition of R1881-induced AR transcriptional activation (antagonistic activity), in words ([6]; compound 10 μM with 10 nM R1881)	agonistic activity on AR transcription, in words ([6]; compound alone, 10 nM to 1 μM or 10 μM)	LC50 [4]
N#Cc1ccc(OCC(O)(Cc2ccccc2)C(=O)Nc2ccc(C#N)c(C(F)(F)F)c2)cc1 (stereo in doubt) [(R)-XXIV-9]	maintain their cytostatic and cytocidal activity	maintain their cytostatic and cytocidal activity	7.1	n.r.	cell killing activity	did not display toxicity	6.4	16.2 to 20	cell killing activity	17.4									
C[C@](O)(CS(=O)(=O)c1ccc(F)cc1)C(=O)Nc1ccc(C#N)c(C(F)(F)F)c1 [(R)-Bicalutamide, reference compound]				n.r.							n.r.	not observed	1.8	n.r.^a	not observed				
CC[C@](O)(CS(=O)(=O)c1ccc(F)cc1)C(=O)Nc1ccc(C#N)c(C(F)(F)F)c1 [(R)-XXIII-2]	negligible cytotoxic activity	negligible cytotoxic activity		n.r.	weak cytostatic effect	did not display toxicity			weak cytostatic effect		n.r.			n.r.		n.r.			
N#Cc1ccc(NC(=O)[C@](O)(Cc2ccccc2)CS(=O)(=O)c2ccc(F)cc2)cc1C(F)(F)F [(R)-XXIII-3]	negligible cytotoxic activity	negligible cytotoxic activity	6.2	n.r.	suppress completely the cell growth	did not display toxicity	1.8		suppress completely the cell growth					n.r.			A more robust inhibition	do not exhibit agonistic activity	
N#Cc1ccc(C[C@](O)(CS(=O)(=O)c2ccc(F)cc2)C(=O)Nc2ccc(C#N)c(C(F)(F)F)c2)cc1 [(R)-XXIII-7]	negligible cytotoxic activity	negligible cytotoxic activity	1.8	n.r.		did not display toxicity	1.4	16.2 to 20	cytocidal effect	20									
N#Cc1ccc(NC(=O)[C@](O)(Cc2cc(F)cc(F)c2)CS(=O)(=O)c2ccc(F)cc2)cc1C(F)(F)F [(R)-XXIII-9]	maintain their cytostatic and cytocidal activity reaching LC50 values	maintain their cytostatic and cytocidal activity reaching LC50 values	8.2	n.r.	cell killing activity	Hepato-toxicity was observed	5.7	16.2 to 20	cell killing activity	19.7									not able to reach LC50 value
N#Cc1ccc(NC(=O)[C@](O)(Cc2cccc3ccccc23)CS(=O)(=O)c2ccc(F)cc2)cc1C(F)(F)F [(R)-XXIII-10]	maintain their cytostatic and cytocidal activity reaching LC50 values	maintain their cytostatic and cytocidal activity reaching LC50 values	8.3	n.r.	cell killing activity	Hepato-toxicity was observed	6.1	16.2 to 20	cell killing activity	19.7									not able to reach LC50 value
